Laboratory results: ChEMBL document CHEMBL1201862, “PubChem BioAssay data set” (2004)
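Method: 48-hour compound exposure of cells in 96-well plates, five concentrations, linear interpolation of endpoints. The concentration for 50% growth inhibition is given as GI50.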 The source made the active and inactive calls. No stated cut-off is given here; in the data, active = GI50 up to about 1.1 µM and inactive = higher.

What was measured:
Experiment in all cases: growth of human tumour cells (NCI), 48 h
786-0 = tested on: 786-0
A498 = tested on: A498
A549 = tested on: A549
ACHN = tested on: ACHN
BT-549 = tested on: BT-549
CAKI-1 = tested on: CAKI-1
CCRF-CEM = tested on: CCRF-CEM
COLO 205 = tested on: COLO 205
DU-145 = tested on: DU-145
EKVX = tested on: EKVX
HCT-116 = tested on: HCT-116
HCT-15 = tested on: HCT-15
HL-60 = tested on: HL-60
HOP-62 = tested on: HOP-62
HOP-92 = tested on: HOP-92
HT-29 = tested on: HT-29
Hs-578T = tested on: Hs-578T
IGROV-1 = tested on: IGROV-1
K562 = tested on: K562
KM12 = tested on: KM12
LOX IMVI = tested on: LOX IMVI
M14 = tested on: M14
MCF7 = tested on: MCF7
MDA-MB-231 = tested on: MDA-MB-231
MDA-MB-435 = tested on: MDA-MB-435
MDA-N = tested on: MDA-N
Malme-3M = tested on: Malme-3M
NCI-H226 = tested on: NCI-H226
NCI-H23 = tested on: NCI-H23
NCI-H460 = tested on: NCI-H460
NCI-H522 = tested on: NCI-H522
NCI/ADR-RES = tested on: NCI/ADR-RES
OVCAR-3 = tested on: OVCAR-3
OVCAR-4 = tested on: OVCAR-4
OVCAR-5 = tested on: OVCAR-5
OVCAR-8 = tested on: OVCAR-8
PC-3 = tested on: PC-3
RPMI-8226 = tested on: RPMI-8226
RXF 393 = tested on: RXF 393
SF-268 = tested on: SF-268
SF-295 = tested on: SF-295
SF-539 = tested on: SF-539
SK-MEL-28 = tested on: SK-MEL-28
SK-MEL-2 = tested on: SK-MEL-2
SK-MEL-5 = tested on: SK-MEL-5
SK-OV-3 = tested on: SK-OV-3
SN12C = tested on: SN12C
SNB-19 = tested on: SNB-19
SNB-75 = tested on: SNB-75
SW-620 = tested on: SW-620
T47D = tested on: T47D
TK-10 = tested on: TK-10
U-251 = tested on: U-251
UACC-257 = tested on: UACC-257
UACC-62 = tested on: UACC-62
UO-31 = tested on: UO-31
MOLT-4 = tested on: MOLT-4
HCC 2998 = tested on: HCC 2998

Measured: GI50

NC(=O)NC(=O)C1CCCCC1C(=O)O (configuration not stated)
inactive: 786-0 > 100 µM | A498 > 100 µM | A549 > 100 µM | ACHN > 100 µM | BT-549 > 100 µM | CAKI-1 > 100 µM | CCRF-CEM > 100 µM | COLO 205 > 100 µM | DU-145 > 100 µM | EKVX > 100 µM | HCT-116 > 100 µM | HL-60 > 100 µM | HOP-62 > 100 µM | HOP-92 > 100 µM | HT-29 > 100 µM | Hs-578T > 100 µM | IGROV-1 > 100 µM | K562 5.11 µM | KM12 > 100 µM | LOX IMVI > 100 µM | M14 > 100 µM | MCF7 > 100 µM | MDA-MB-231 > 100 µM | MDA-MB-435 > 100 µM | MDA-N > 100 µM | Malme-3M > 100 µM | NCI-H226 > 100 µM | NCI-H23 > 100 µM | NCI-H460 > 100 µM | NCI-H522 > 100 µM | NCI/ADR-RES > 100 µM | OVCAR-3 > 100 µM | OVCAR-4 > 100 µM | OVCAR-5 > 100 µM | OVCAR-8 > 100 µM | PC-3 > 100 µM | RPMI-8226 > 100 µM | RXF 393 > 100 µM | SF-268 > 100 µM | SF-295 > 100 µM | SF-539 > 100 µM | SK-MEL-28 > 100 µM | SK-MEL-2 > 100 µM | SK-MEL-5 > 100 µM | SK-OV-3 > 100 µM | SN12C > 100 µM | SNB-19 > 100 µM | SNB-75 > 100 µM | SW-620 > 100 µM | T47D > 100 µM | TK-10 > 100 µM | U-251 > 100 µM | UACC-257 > 100 µM | UACC-62 > 100 µM | UO-31 > 100 µM
> 100 µM: HCT-15

COc1ccc2c(=O)oc3c(OC)cc(CCN(C)C)c4c(=O)oc1c2c34 [TASPINE]
inactive: A498 10.3 µM | BT-549 7.74 µM | COLO 205 9.16 µM | DU-145 8.51 µM | Hs-578T 10.3 µM | M14 9.31 µM | MCF7 5.86 µM | MDA-MB-231 8.55 µM | MDA-MB-435 8.32 µM | MDA-N 7.82 µM | MOLT-4 6.79 µM | NCI-H226 24.2 µM | NCI-H23 9.27 µM | NCI-H522 6.76 µM | NCI/ADR-RES 7.46 µM | OVCAR-3 9.86 µM | OVCAR-5 11.7 µM | OVCAR-8 6.93 µM | PC-3 10.5 µM | SF-268 7.33 µM | SK-MEL-2 12.1 µM | SK-MEL-5 7.29 µM | SN12C 7.78 µM | SNB-19 8.93 µM | T47D 9.35 µM | U-251 9.68 µM | UACC-62 8.97 µM
active: CCRF-CEM 0.948 µM

COc1cc(C/C=C/c2ccccc2)c(OC)cc1O [VIOLASTYRENE]
inactive: 786-0 13.8 µM | A498 80.4 µM | A549 43.9 µM | ACHN 23.6 µM | BT-549 24.7 µM | CAKI-1 26.2 µM | CCRF-CEM 17.1 µM | COLO 205 22.3 µM | DU-145 17.3 µM | EKVX 18.1 µM | HCC 2998 16.7 µM | HCT-116 17.3 µM | HL-60 23.6 µM | HOP-92 15.4 µM | HT-29 20.9 µM | Hs-578T 30.8 µM | IGROV-1 18.3 µM | K562 15.6 µM | KM12 17 µM | LOX IMVI 17.7 µM | M14 19.2 µM | MDA-MB-231 15.1 µM | MDA-MB-435 18.5 µM | MDA-N 17.9 µM | MOLT-4 18.6 µM | Malme-3M 22.6 µM | NCI-H226 24.5 µM | NCI-H23 21.3 µM | NCI-H460 20.3 µM | NCI-H522 20.9 µM | NCI/ADR-RES 26.5 µM | OVCAR-3 20.1 µM | OVCAR-4 18 µM | OVCAR-5 24.7 µM | OVCAR-8 12.6 µM | PC-3 21.6 µM | RPMI-8226 15.6 µM | SF-268 25.9 µM | SF-539 17.9 µM | SK-MEL-28 18.7 µM | SK-MEL-2 23.2 µM | SK-MEL-5 23.7 µM | SN12C 19.1 µM | SNB-19 30.5 µM | SNB-75 24.6 µM | SW-620 20 µM | T47D 17.4 µM | TK-10 18.8 µM | U-251 18.7 µM | UACC-257 29.4 µM | UACC-62 16.8 µM | UO-31 16.8 µM
17.9 µM: HCT-15
